Reference: PubChem BioAssay AID1963867 (Molecular Pharmacology Branch, DTP, NCI, 2024)

Tested on: KRAS-mutant PDC tumor spheroid with HUVEC/MSC, viability
Assay: Anticancer human tumor 327498-153-R-J2-PDC patient-derived uterine carcinosarcoma cell line growth inhibition [KRAS2]
Details: for IC50: curve of first compound; for viability, T/C: stronger effect = lower value
Outline: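 Combination screen of spheroid viability in tumor-cell co-cultures with endothelial (HUVEC) and mesenchymal stem cell stroma. Each agent was tested in half-log dilutions, topping at clinical Cmax or at 10 microM without a known Cmax.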

[1] = second compound 0.1 µM, first compound 0.0316 µM
[2] = second compound 0.1 µM, first compound 0.1 µM
[3] = second compound 0.1 µM, first compound 0.316 µM
[4] = second compound 0.1 µM, first compound 1 µM
[5] = second compound 0.1 µM, first compound 3.16 µM
[6] = second compound 0.1 µM, first compound 10 µM
[7] = second compound 0.316 µM, first compound 0.0316 µM
[8] = second compound 0.316 µM, first compound 0.1 µM
[9] = second compound 0.316 µM, first compound 0.316 µM
[10] = second compound 0.316 µM, first compound 1 µM
[11] = second compound 0.316 µM, first compound 3.16 µM
[12] = second compound 0.316 µM, first compound 10 µM
[13] = second compound 1 µM, first compound 0.0316 µM
[14] = second compound 1 µM, first compound 0.1 µM
[15] = second compound 1 µM, first compound 0.316 µM
[16] = second compound 1 µM, first compound 1 µM
[17] = second compound 1 µM, first compound 3.16 µM
[18] = second compound 1 µM, first compound 10 µM
[19] = second compound 3.16 µM, first compound 0.0316 µM
[20] = second compound 3.16 µM, first compound 0.1 µM
[21] = second compound 3.16 µM, first compound 0.316 µM
[22] = second compound 3.16 µM, first compound 1 µM
[23] = second compound 3.16 µM, first compound 3.16 µM
[24] = second compound 3.16 µM, first compound 10 µM
[25] = second compound 10 µM, first compound 0.0316 µM
[26] = second compound 10 µM, first compound 0.1 µM
[27] = second compound 10 µM, first compound 0.316 µM
[28] = second compound 10 µM, first compound 1 µM
[29] = second compound 10 µM, first compound 3.16 µM
[30] = second compound 10 µM, first compound 10 µM
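Further: spheroids exposed to agents for seven days before reading.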
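Wherever viability, T/C is given: 100% = DMSO vehicle wells so lower means fewer viable cells.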

Structure (SMILES) | IC50 (second compound 0.1 µM) [nM] | IC50 (second compound 0.316 µM) [nM] | IC50 (second compound 1 µM) [nM] | IC50 (second compound 3.16 µM) [nM] | viability, T/C [1] [%] | viability, T/C [2] [%] | viability, T/C [3] [%] | viability, T/C [4] [%] | viability, T/C [5] [%] | viability, T/C [7] [%] | viability, T/C [8] [%] | viability, T/C [9] [%] | viability, T/C [10] [%] | viability, T/C [11] [%] | viability, T/C [13] [%] | viability, T/C [14] [%] | viability, T/C [15] [%] | viability, T/C [16] [%] | viability, T/C [17] [%] | viability, T/C [19] [%] | further results
CC1OCC2(CCN(c3cnc(Sc4ccnc(N)c4Cl)c(N)n3)CC2)C1N (stereo not given) + C=CC(=O)N1CCN(c2nc(=O)n(-c3c(C)ccnc3C(C)C)c3nc(-c4c(O)cccc4F)c(F)cc23)C(C)C1 | < 31.6 | < 31.6 | < 31.6 | < 31.6 | 44.1 | 34.8 | 25.5 | 25.2 | 21 | 41.1 | 33.4 | 26.4 | 23.3 | 19.1 | 40.6 | 31.6 | 31.7 | 22.9 | 17.8 | 41.8 | IC50 (second compound 10 µM): < 31.6 nM; viability, T/C [6]: 16.3%; viability, T/C [12]: 15.9%; viability, T/C [18]: 16.9%; viability, T/C [20]: 37.4%; viability, T/C [21]: 28.7%; viability, T/C [22]: 23.2%; viability, T/C [23]: 22.8%; viability, T/C [24]: 19.4%; viability, T/C [25]: 33.3%; viability, T/C [26]: 28%; viability, T/C [27]: 23.1%; viability, T/C [28]: 21.1%; viability, T/C [29]: 16.1%; viability, T/C [30]: 16.9%
Cn1nccc1Nc1nccc(-c2cc3c(s2)C(C)(C)N(CCN2CCOCC2)C3=O)n1 + C=CC(=O)N1CCN(c2nc(=O)n(-c3c(C)ccnc3C(C)C)c3nc(-c4c(O)cccc4F)c(F)cc23)C(C)C1 | 1400 | 2240 | 3120 | 925 | 60.7 | 61.5 | 55.8 | 54.8 | 41.8 | 55.7 | 63.8 | 55.1 | 54 | 46.6 | 63 | 56.3 | 60.9 | 55.2 | 49.1 | 60.5 | IC50 (second compound 10 µM): < 31.6 nM; viability, T/C [6]: 36.5%; viability, T/C [12]: 42.2%; viability, T/C [18]: 42.4%; viability, T/C [20]: 59.3%; viability, T/C [21]: 50.8%; viability, T/C [22]: 49.6%; viability, T/C [23]: 48.3%; viability, T/C [24]: 40.5%; viability, T/C [25]: 49.9%; viability, T/C [26]: 47.8%; viability, T/C [27]: 45.3%; viability, T/C [28]: 37.7%; viability, T/C [29]: 41.1%; viability, T/C [30]: 29.3%
CC(=O)OC12COC1CC(O)C1(C)C(=O)C(O)C3=C(C)C(OC(=O)C(O)C(NC(=O)OC(C)(C)C)c4ccccc4)CC(O)(C(OC(=O)c4ccccc4)C21)C3(C)C (stereo not given) + C=CC(=O)N1CCN(c2nc(OCC3CCCN3C)nc3c2CCN(c2cccc4cccc(C)c24)C3)CC1CC#N | < 10 | < 10 | < 10 | < 10 | 4.17 | 3.96 | 4.52 | 6.93 | 8.74 | 4.31 | 4.23 | 4.71 | 5.82 | 7.76 | 3.43 | 3.95 | 3.86 | 5.54 | 4.84 | 6.27 | IC50 (second compound 0.0316 µM): < 10 nM; viability, T/C (second compound 0.0316 µM, first compound 0.01 µM): 6.75%; viability, T/C (second compound 0.0316 µM, first compound 0.0316 µM): 5.33%; viability, T/C (second compound 0.0316 µM, first compound 0.1 µM): 6.51%; viability, T/C (second compound 0.0316 µM, first compound 0.316 µM): 6.19%; viability, T/C (second compound 0.0316 µM, first compound 1 µM): 7.48%; viability, T/C (second compound 0.0316 µM, first compound 3.16 µM): 10.1%; viability, T/C (second compound 0.1 µM, first compound 0.01 µM): 5.53%; viability, T/C (second compound 0.316 µM, first compound 0.01 µM): 4.9%; viability, T/C (second compound 1 µM, first compound 0.01 µM): 4.4%; viability, T/C (second compound 3.16 µM, first compound 0.01 µM): 7.35%; viability, T/C [20]: 5.84%; viability, T/C [21]: 6.15%; viability, T/C [22]: 7.24%; viability, T/C [23]: 10.6%
